In assay [1] the test system is Transgenic Hi-II maize plants containing the AAD-1 and PAT expression cassette (3404). Put plainly: Post-emergent herbicide application on transgenic maize containing AAD-1 and PAT (pDAB3404), visual injury assessment. The format is in vivo. The settings on record: for Tolerance (−/+) 3404: 3404 = molecular stack of AAD-1 and PAT crossed with CP4 for glyphosate tolerance, V1-V3 stage, 1x Field Rate, visual injury after 14 days; for injury: WT and 3404 not distinguished; for Comment (activity in words): applies to both WT and AAD-1 plants.
Procedure: Seed were planted into Metro Mix Media (Sun Gro Horticulture Inc., Bellevue, Wash.) and subirrigated with Hoagland's solution until wet, then allowed to gravity drain. Pots were placed in a glasshouse environment set to 27° C. until the germinated plants reached the V1-V3 growth stage. At or about, the V1-V3 growth stage, the maize plants were spayed using a track sprayer and a drop down nozzle calibrated to deliver a187 L/ha solution of herbicide at the 1× Field Rate (Table 7). After treatment the plants were placed in the greenhouse and scored via visual injury assessment after 14 days.

For assay [2], the system named is volunteer conventional or transgenic maize lines. Kind of assay: Control of volunteer maize in a field planted with AAD-maize using alternative herbicides (Table 6, herbicide options). It is filed as in vivo. Particulars: for Herbicides option - Burndown/PRE: planted: any AAD-1 hybrid of the table. An excerpt:
In an embodiment, volunteer transgenic maize lines (containing the Clear Field trait, Roundup Ready or other Glyphosate Tolerant Trait, Liberty Link Trait, Imidazolonine tolerant trait, or any stacked combination thereof) or volunteer conventional maize lines are controlled within a field of transgenic AAD maize (AAD-1) by the application of aryloxyphenoxypropionate herbicide (Fops) including, but not limited to; quizalofop, haloxyfop, fenoxaprop, fluazifop, et al., their stereospecific isomers or racemic mixtures, and esters, acid, or salts thereof. In addition, the Fops herbicide may be applied with another herbicide(s) to control the volunteer maize lines described above.
The application of a given herbicide can be made before planting at pre-emergence/burndown or post-emergence after planting to control the volunteer conventional or transgenic maize lines. Table 6 lists the herbicides to be used at the different stages of planting (pre-emergence or post-emergence) to control volunteer conventional or transgenic maize. At or about a 1× Field Rate concentration of herbicide would be applied, as either a tank mix or alone, to the field for both pre-emergent and post-emergent volunteer control.
The control of conventional maize plants or transgenic maize plants containing a herbicide tolerant expression cassette within a field of AAD transgenic maize (either stacked with other herbicide tolerant traits or alone) would be applicable for the control of a herbicide tolerant transgenic monocot plant (including, but not limited too; corn, rice, sugar cane, switch grass, turf grass species, sorghum, barley, wheat, and oats, and durum) within a field being planted with an AAD monocot crop (including, but not limited too; corn, rice, sugar cane, switch grass, turf grass species, sorghum, barley, wheat, and oats, and durum). The example described above, in which volunteer transgenic herbicide tolerant maize plants are controlled in a field planted with AAD transgenic maize, is illustrative of the invention and not intended to restrict the scope of this embodiment.

Setting [3] is: volunteer: CL Corn, planted: AAD-1 + PAT + AHAS.
Setting [4] is: volunteer: CL Corn, planted: AAD-1 + PAT + GAT + ALS.
Setting [5] is: volunteer: CL Corn, planted: AAD-1 + PAT + GT.
Where [6] appears, read: volunteer: Conventional corn, planted: AAD-1 + PAT + AHAS.
Setting [7] is: volunteer: Conventional corn, planted: AAD-1 + PAT + GAT + ALS.
The mark [8] stands for this setting: volunteer: Conventional corn, planted: AAD-1 + PAT + GT.
The mark [9] stands for this setting: volunteer: RR or GT Corn (text printed beside the CL Corn lines r30-r36).

In the case of `CC(C)C1(C)N=C(c2nc3ccccc3cc2C(=O)O)NC1=O` (stereo not shown) [imazaquin], the “Tolerance (−/+) 3404” value in assay [1] is recorded as “−/+”. Moreover, the injury entry in assay [1] (@ 50 g ai/ha) is given as “Need higher than 50 g ai/ha rate (50% injury @”.

In the case of `CCC/C(=N\OCC)C1=C(O)CC(CC(C)SCC)CC1=O` (stereo not shown) [sethoxydim], in assay [1], the “Tolerance (−/+) 3404” value is on record as “−”.

On to `O=C(O)CNCP(=O)(O)O` [glyphosate], for which the “Herbicides option - POST” value in assay [2] (volunteer: CL (or AHAS) + PAT, planted: AAD-1 + AHAS) is recorded as “glyphosate”; in assay [2] (volunteer: CL (or AHAS) + PAT, planted: AAD-1 + GAT + ALS), “glyphosate”; in assay [2] (volunteer: CL (or AHAS) + PAT, planted: AAD-1 + GT), “glyphosate”; in assay [2] (volunteer: CL (or AHAS) + PAT, planted: AAD-1 + PAT + AHAS), “glyphosate”; in assay [2] (volunteer: CL (or AHAS) + PAT, planted: AAD-1 + PAT + GAT + ALS), “glyphosate”; in assay [2] (volunteer: CL (or AHAS) + PAT, planted: AAD-1 + PAT + GT) it was “glyphosate”. Further, the “Herbicides option - POST” value in assay [2] (volunteer: CL Corn, planted: AAD-1 + AHAS) is on record as “glyphosate”; in assay [2] (volunteer: CL Corn, planted: AAD-1 + GAT + ALS), “glyphosate”; in assay [2] (volunteer: CL Corn, planted: AAD-1 + GT), “glyphosate”; in assay [2] (setting [3]) it was “glyphosate”; in assay [2] (setting [4]) it was “glyphosate”; in assay [2] (setting [5]), “glyphosate”. For the same compound, the “Herbicides option - POST” value in assay [2] (volunteer: Conventional corn, planted: AAD-1 + AHAS) is given as “glyphosate”; in assay [2] (volunteer: Conventional corn, planted: AAD-1 + GAT + ALS), “glyphosate”; in assay [2] (volunteer: Conventional corn, planted: AAD-1 + GT), “glyphosate”; in assay [2] (setting [6]), “glyphosate”; in assay [2] (setting [7]) it was “glyphosate”; in assay [2] (setting [8]), “glyphosate”. Also, the “Herbicides option - POST” value is given as “glyphosate” in assay [2] (volunteer: LL Corn, planted: AAD-1 + AHAS); “glyphosate” in assay [2] (volunteer: LL Corn, planted: AAD-1 + GAT + ALS); “glyphosate” in assay [2] (volunteer: LL Corn, planted: AAD-1 + GT); “glyphosate” in assay [2] (volunteer: LL Corn, planted: AAD-1 + PAT + AHAS); “glyphosate” in assay [2] (volunteer: LL Corn, planted: AAD-1 + PAT + GAT + ALS); “glyphosate” in assay [2] (volunteer: LL Corn, planted: AAD-1 + PAT + GT).

For the compound `CC(C)N.O=C(O)CNCP(=O)(O)O` [glyphosate-isopropylammonium], the “Tolerance (−/+) 3404” value in assay [1] is recorded as “+”.

Consider `C[n+]1ccc(-c2cc[n+](C)cc2)cc1` [paraquat], for which the “Herbicides option - Burndown/PRE” value in assay [2] (volunteer: CL (or AHAS) + GT), in assay [2] (volunteer: CL (or AHAS) + PAT), in assay [2] (volunteer: CL Corn), in assay [2] (volunteer: Conventional corn), in assay [2] (volunteer: GAT + ALS + PAT) and in assay [2] (volunteer: GAT + ALS) was “paraquat” in each case. Besides, the “Herbicides option - Burndown/PRE” value in assay [2] (volunteer: GT + CL (or AHAS) + PAT), in assay [2] (volunteer: GT + PAT), in assay [2] (volunteer: LL Corn) and in assay [2] (setting [9]) was “paraquat” each time.

`CP(=O)(O)CCC(N)C(=O)O` (stereo not shown) [glufosinate]: the “Herbicides option - POST” value in assay [2] (volunteer: CL (or AHAS) + GT, planted: AAD-1 + PAT) is reported as “glufosinate”; in assay [2] (volunteer: CL (or AHAS) + GT, planted: AAD-1 + PAT + AHAS), “glufosinate”; in assay [2] (volunteer: CL (or AHAS) + GT, planted: AAD-1 + PAT + GAT + ALS), “glufosinate”; in assay [2] (volunteer: CL (or AHAS) + GT, planted: AAD-1 + PAT + GT) it was “glufosinate”; in assay [2] (volunteer: CL Corn, planted: AAD-1 + PAT) it was “glufosinate”; in assay [2] (setting [3]) it was “glufosinate”. Besides, the “Herbicides option - POST” value is on record as “glufosinate” in assay [2] (setting [4]); “glufosinate” in assay [2] (setting [5]); “glufosinate” in assay [2] (volunteer: Conventional corn, planted: AAD-1 + PAT); “glufosinate” in assay [2] (setting [6]); “glufosinate” in assay [2] (setting [7]); “glufosinate” in assay [2] (setting [8]). Besides, the “Herbicides option - POST” value in assay [2] (volunteer: GAT + ALS, planted: AAD-1 + PAT) was “glufosinate”; in assay [2] (volunteer: GAT + ALS, planted: AAD-1 + PAT + AHAS) it was “glufosinate”; in assay [2] (volunteer: GAT + ALS, planted: AAD-1 + PAT + GAT + ALS), “glufosinate”; in assay [2] (volunteer: GAT + ALS, planted: AAD-1 + PAT + GT), “glufosinate”; in assay [2] (volunteer: RR or GT Corn, planted: AAD-1 + PAT) it was “glufosinate”; in assay [2] (volunteer: RR or GT Corn, planted: AAD-1 + PAT + AHAS), “glufosinate”. Further, the “Herbicides option - POST” value in assay [2] (volunteer: RR or GT Corn, planted: AAD-1 + PAT + GAT + ALS) is “glufosinate”; in assay [2] (volunteer: RR or GT Corn, planted: AAD-1 + PAT + GT), “glufosinate”. In addition, the “Herbicides option - Burndown/PRE” value in assay [2] (volunteer: CL (or AHAS) + GT), in assay [2] (volunteer: CL (or AHAS) + PAT), in assay [2] (volunteer: CL Corn), in assay [2] (volunteer: Conventional corn), in assay [2] (volunteer: GAT + ALS) and in assay [2] (setting [9]) was “glufosinate” throughout.

Consider `CCSC(C)CC1CC(=O)C(/C(CC)=N/OC/C=C/Cl)=C(O)C1` (stereo not shown) [clethodim], for which the “Tolerance (−/+) 3404” value in assay [1] is “−”.

Take `COC(=O)C(C)Oc1ccc(Oc2ccc(Cl)cc2Cl)cc1` (stereo not shown) [diclofop-methyl]: in assay [1], the “Tolerance (−/+) 3404” value is reported as “−” and the “Comment (activity in words)” value is “Not active on grasses”.

With `C[C@@H](Oc1ccc(Oc2ncc(Cl)cc2F)cc1)C(=O)O` [clodinafop], in assay [1], the “Tolerance (−/+) 3404” value is recorded as “+”.

With `CCc1cc(C)cc(CC)c1-c1c(OC(=O)C(C)(C)C)n2n(c1=O)CCOCC2` [pinoxaden], in assay [1], the “Tolerance (−/+) 3404” value is “+/−” and the “Comment (activity in words)” value is on record as “Not active but small amt of control on both WT”.

Turning to `CCCCOC(=O)[C@@H](C)Oc1ccc(Oc2ccc(C#N)cc2F)cc1` [cyhalofop-butyl], in assay [1], the “Tolerance (−/+) 3404” value is “+”.

With `O=C(O)CNCP(=O)(O)O` [Glyphosate], the “Herbicides option - Burndown/PRE” value in assay [2] (volunteer: CL (or AHAS) + PAT), in assay [2] (volunteer: CL Corn), in assay [2] (volunteer: Conventional corn), in assay [2] (volunteer: GAT + ALS) and in assay [2] (volunteer: LL Corn) was “Glyphosate” each time.

As to `CCO/N=C(\CC)C1=C(O)CC(c2c(C)cc(C)cc2C)CC1=O` (stereo not shown) [tralkoxydim], in assay [1], the “Tolerance (−/+) 3404” value is listed as “−”.

Consider `CCOC(=O)[C@@H](C)Oc1ccc(Oc2nc3ccc(Cl)cc3o2)cc1` [fenoxaprop-P-ethyl], for which the “Tolerance (−/+) 3404” value in assay [1] is “+”.

Take `COC(=O)[C@@H](C)Oc1ccc(Oc2ncc(C(F)(F)F)cc2Cl)cc1` [haloxyfop-methyl R]: in assay [1], the “Tolerance (−/+) 3404” value is “+”.

Turning to `COCc1cnc(C2=NC(C)(C(C)C)C(=O)N2)c(C(=O)O)c1` (stereo not shown) [imazamox], the “Tolerance (−/+) 3404” value in assay [1] is given as “−”.

On to `CC(Oc1ccc(Oc2cnc3cc(Cl)ccc3n2)cc1)C(=O)O` (stereo not shown) [quizalofop], for which the “Tolerance (−/+) 3404” value in assay [1] is “+”.

Turning to `CCc1cnc(C2=NC(C)(C(C)C)C(=O)N2)c(C(=O)O)c1` (stereo not shown) [imazethapyr], the “Tolerance (−/+) 3404” value in assay [1] is “−/+”. Further, the injury result in assay [1] (@ 70 g ai/ha) is recorded as “Need higher than 70 g ai/ha rate (50% injury @”.

For the compound `CCCCOC(=O)[C@@H](C)Oc1ccc(Oc2ccc(C(F)(F)F)cn2)cc1` [fluazifop-P-butyl], the “Tolerance (−/+) 3404” value in assay [1] is “+”.

For the compound `CP(=O)(O)CCC(N)C(=O)O` (stereo not shown) [glufosinate-ammonium], the “Tolerance (−/+) 3404” value in assay [1] is listed as “+”.

The values above are taken from US8748700B2, “Control of AAD-1 monocot volunteers in fields of dicot crops” (Dow AgroSciences, LLC., priority 2009, dated 2014).
